Experiment [1] addresses T1, homomeric GluA1 AMPA receptor (Rattus norvegicus, UniProt P19490).
T1 construct: expressed in transfected cells; host or cells: HEK293-T/17 (CRL-11268)
Nature of the experiment: Whole-cell patch clamp of recombinant GluA1 receptors in HEK293-T/17 cells. In kind it is cell-based. The conditions noted are these: 30 μM; 10 mM glutamate. The procedure:
(§1) Cell Culture and Transfection. Human embryonic kidney cells expressing T-antigen, clone 17 (HEK293-T/17) (CRL-11268) were cultured at 37° C. with 5% CO2 in DMEM, including 100 μg/mL penicillin, 100 μg/mL streptomycin, and 10% heat-inactivated fetal bovine serum. Cells were split twice per week. For transfection, HEK293-T/17 cells were plated at 3×10^4 cells/cm^2 for pharmacology experiments and 5×10^3 cells/cm^2 for physiology experiments in fresh medium 24 h prior to transfection. Cells were transfected with AMPA or KA receptor plasmid cDNAs using Mirus Trans-IT transfection reagent (Minus Bio Corporation, Madison, Wis.) at a ratio of 1 μg cDNA: 3 μL Trans-1T reagent and maintained in transfection medium overnight followed by a media change the next day. Transfected cells were maintained in this medium until the experiment was conducted (48-72 h total post transfection).
(§2) Electrophysiology. For analysis of recombinant receptors, HEK293-T/17 cells were co-transfected with 0.2 μg of iGluR cDNA and 0.05 μg of eGFP. For heterologous GluA1/GluA2 receptors, the GluA1:GluA2 cDNA ratio was 1:6. Two to three days post-transfection, eGFP-expressing cells were lifted from the cover slip and voltage clamped in whole cell mode. […]
Background: In patch-clamp work, channel activity is measured electrically.

The target in experiment [2] is T2, homomeric GluK2a kainate receptor (Rattus norvegicus, UniProt P42260).
T2 construct: myc; expressed in transfected cells; host or cells: HEK293-T/17 (CRL-11268)
T2 sequence (P42260 32-908): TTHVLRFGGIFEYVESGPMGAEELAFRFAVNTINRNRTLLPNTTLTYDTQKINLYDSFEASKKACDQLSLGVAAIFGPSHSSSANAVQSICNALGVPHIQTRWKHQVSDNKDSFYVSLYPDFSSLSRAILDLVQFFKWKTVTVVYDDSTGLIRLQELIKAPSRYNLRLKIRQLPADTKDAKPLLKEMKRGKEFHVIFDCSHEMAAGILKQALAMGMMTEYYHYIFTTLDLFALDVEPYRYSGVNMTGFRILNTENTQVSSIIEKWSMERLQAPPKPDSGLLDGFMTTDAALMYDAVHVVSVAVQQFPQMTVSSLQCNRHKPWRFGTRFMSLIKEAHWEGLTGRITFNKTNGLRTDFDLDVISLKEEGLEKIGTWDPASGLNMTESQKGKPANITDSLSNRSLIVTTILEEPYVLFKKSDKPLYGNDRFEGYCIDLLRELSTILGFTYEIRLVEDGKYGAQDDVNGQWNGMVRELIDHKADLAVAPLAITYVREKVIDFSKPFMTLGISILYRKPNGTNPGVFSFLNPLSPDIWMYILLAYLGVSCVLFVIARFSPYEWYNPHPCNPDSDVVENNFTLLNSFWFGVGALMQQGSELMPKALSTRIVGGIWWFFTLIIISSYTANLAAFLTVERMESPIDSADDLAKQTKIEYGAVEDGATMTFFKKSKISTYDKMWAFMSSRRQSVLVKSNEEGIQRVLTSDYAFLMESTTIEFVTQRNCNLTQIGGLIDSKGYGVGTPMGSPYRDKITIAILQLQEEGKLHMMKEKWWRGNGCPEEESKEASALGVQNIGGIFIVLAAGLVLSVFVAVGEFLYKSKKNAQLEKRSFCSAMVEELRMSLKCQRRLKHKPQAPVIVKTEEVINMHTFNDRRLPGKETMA
Nature of the experiment: Whole-cell patch clamp of recombinant GluK2a receptors in HEK293-T/17 cells. Format: cell-based. The settings on record: 30 μM; 10 mM glutamate. On the procedure:
as §1, §2

The target in experiment [3] is T3, GluA2 (Rattus norvegicus, UniProt P19491).
T3 construct: expressed in transfected cells; host or cells: HEK293-T/17 (CRL-11268), membranes
T3 sequence (P19491 22-883 isoform P19491-2 limits assumed): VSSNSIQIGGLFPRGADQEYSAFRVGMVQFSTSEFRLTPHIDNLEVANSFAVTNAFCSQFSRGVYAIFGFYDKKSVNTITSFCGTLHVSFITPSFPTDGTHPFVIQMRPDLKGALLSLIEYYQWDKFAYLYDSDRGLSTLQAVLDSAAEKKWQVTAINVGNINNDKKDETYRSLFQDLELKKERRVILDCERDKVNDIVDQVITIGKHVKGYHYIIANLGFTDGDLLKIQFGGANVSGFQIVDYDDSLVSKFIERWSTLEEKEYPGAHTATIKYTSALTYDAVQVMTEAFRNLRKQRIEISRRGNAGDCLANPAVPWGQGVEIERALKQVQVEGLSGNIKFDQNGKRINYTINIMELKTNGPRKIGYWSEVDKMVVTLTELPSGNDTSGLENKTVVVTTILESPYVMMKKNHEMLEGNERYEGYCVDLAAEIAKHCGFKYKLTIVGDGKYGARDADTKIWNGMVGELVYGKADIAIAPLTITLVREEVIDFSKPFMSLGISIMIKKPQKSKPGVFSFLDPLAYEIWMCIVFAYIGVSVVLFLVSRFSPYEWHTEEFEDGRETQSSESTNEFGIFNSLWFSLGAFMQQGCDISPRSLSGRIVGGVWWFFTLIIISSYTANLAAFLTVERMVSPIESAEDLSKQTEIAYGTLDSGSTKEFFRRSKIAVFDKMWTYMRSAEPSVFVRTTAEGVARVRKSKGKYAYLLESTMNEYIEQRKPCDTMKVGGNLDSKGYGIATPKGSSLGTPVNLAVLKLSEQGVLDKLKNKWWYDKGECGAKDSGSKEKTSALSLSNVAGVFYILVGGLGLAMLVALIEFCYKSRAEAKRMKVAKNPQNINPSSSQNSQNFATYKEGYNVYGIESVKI
As to the kind of experiment: [3H]-AMPA radioligand binding, membranes of HEK293-T/17 cells expressing GluA2. The conditions noted are these: 100 μM; 20 nM [3H]-AMPA; 1 h at 4° C. On the procedure:
Radioligand binding. HEK293-T/17 cells were transfected with 5 μg of iGluR cDNA in 100 mm^2 culture dishes. Two days post transfection, the plates were washed twice with ice-cold Dulbecco's phosphate-buffered saline (DPBS) and then incubated with 50 mM Tris (pH 7.4) and 1 mM EDTA for three minutes on ice. Cells were collected and centrifuged for five minutes at 800 g at room temperature. The cell pellet was homogenized in 50 mM Tris (pH 7.4) containing 320 mM sucrose (homogenization buffer, HB) on ice using a glass dounce homogenizer and centrifuged at 4° C. for 10 minutes at 800 g. The supernatant, containing the membrane fragments, was saved and the remaining pellet containing nuclei and unbroken cells was resuspended in HB. This homogenization process was repeated two more times and after collection of the final resulting supernatant, the remaining pellet was discarded. The collected supernatants were centrifuged at 4° C. for 20 minutes at 20000 g and the resulting supernatant was discarded leaving a membrane-containing pellet. […] Non-specific binding was determined as the amount of radioligand bound in the presence of a saturating concentration of glutamate (1 mM). Total binding was determined as the amount of radioligand bound in the absence of any competing ligands minus the non-specific binding. […]

T1 sequence (P19490 19-907 isoform P19490-2 limits assumed): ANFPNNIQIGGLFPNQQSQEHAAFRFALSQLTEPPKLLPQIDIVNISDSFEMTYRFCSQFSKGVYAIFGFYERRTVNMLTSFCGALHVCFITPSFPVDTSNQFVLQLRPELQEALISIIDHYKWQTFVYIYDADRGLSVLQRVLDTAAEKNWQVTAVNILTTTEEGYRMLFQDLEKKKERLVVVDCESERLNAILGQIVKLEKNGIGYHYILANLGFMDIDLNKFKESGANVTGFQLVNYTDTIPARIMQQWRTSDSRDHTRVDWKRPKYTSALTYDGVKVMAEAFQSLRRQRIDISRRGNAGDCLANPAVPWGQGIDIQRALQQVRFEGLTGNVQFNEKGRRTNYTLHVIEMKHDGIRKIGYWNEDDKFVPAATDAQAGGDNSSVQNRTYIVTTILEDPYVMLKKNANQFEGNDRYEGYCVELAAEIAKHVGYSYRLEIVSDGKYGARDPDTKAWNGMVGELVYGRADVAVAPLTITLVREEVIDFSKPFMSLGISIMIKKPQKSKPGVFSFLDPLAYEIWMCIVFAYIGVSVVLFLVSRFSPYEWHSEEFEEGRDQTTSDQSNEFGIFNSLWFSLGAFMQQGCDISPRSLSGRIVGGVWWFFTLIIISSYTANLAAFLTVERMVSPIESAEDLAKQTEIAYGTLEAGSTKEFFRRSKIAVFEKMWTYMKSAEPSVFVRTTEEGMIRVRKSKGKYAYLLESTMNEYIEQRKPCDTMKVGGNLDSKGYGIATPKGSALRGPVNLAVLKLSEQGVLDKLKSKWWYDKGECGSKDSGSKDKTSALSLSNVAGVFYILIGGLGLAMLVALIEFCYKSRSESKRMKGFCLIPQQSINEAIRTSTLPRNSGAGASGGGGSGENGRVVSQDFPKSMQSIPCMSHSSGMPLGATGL

In the case of `O=C(O)C[C@@]12O[C@H]3C=CCN[C@H]3C1CN[C@H]2C(=O)O` (stereo partly drawn) [IKM-159], the “GluA1 peak amplitude as percent of basal (glutamate alone) peak” value in experiment [1] was 92±3%. Further, the “GluK2a peak amplitude as percent of basal peak glutamate current” value in experiment [2] turned out to be 93±2%. For the same molecule, the “[3H]AMPA bound as percent of total (specific) binding in absence of competing ligand” value in experiment [3] was found to be 107±5%.

The values above are taken from US8895579B2, “Heterotricyclic AMPA receptor antagonists for treatment of epilepsy, pain, and other neurological disorders and diseases” (Northwestern University, priority 2010, dated 2014).
